This note sets out measurements from patent US4864021A, “5-fluorouracil derivatives” (Otsuka Pharmaceutical Co., Ltd., priority 1984, dated 1989).

The term LD50 denotes the dose at which mortality reaches 50%. A higher LD50 goes with lower toxicity.

Each structure is given as a SMILES string.

One data set relates to Sarcoma-180. Put plainly: Antitumor test: Sarcoma-180 subcutaneously transplanted in ICR mice, oral once a day for 7 days, tumor weight on 10th day (50% tumor inhibition dose). The format is in vivo. Particulars: Mus musculus, 240 h, Table 1, Sarcoma-180 s.c. in ICR mice, once a day for 7 consecutive days, tumor weight on 10th day, read-out: ED50 (50% tumor inhibition dose, T/C is 0.5). The procedure:
(a) Sarcoma-180 subcultured in an ascites of ICR mice was diluted with a physiological saline solution and subcutaneously transplated into the backs of ICR mice in an amount of 2×10^7 each. Twenty-four hours after the transplantation, a test compound suspended in a 5% solution of gum arabic was orally administered to each of mice once a day for 7 consecutive days.
The solid tumor was extirpated from under the dorsal skin of mice on the 10th day after the transplantation to measure the weight of the tumor. There was determined the ratio (T/C) of the weight of tumor (T) cut out from the group of mice treated with the test compound to the weight of tumor (C) from the group of mice not treated therewith. The 50% tumor inhibition dose (ED50 value) in which T/C is 0.5 was determined from the dose-response curve of dosage and the ratio (T/C).
`O=c1[nH]c(=O)n([C@H]2C[C@H](OCc3ccccc3F)[C@@H](CO)O2)cc1F` [Example 2]: the ED50 was found to be 8 mg/kg.

For the molecule `CC(=O)OC[C@H]1O[C@@H](n2cc(F)c(=O)[nH]c2=O)C[C@@H]1OCc1ccccc1` [Example 54, 3'-O-benzyl-5'-O-acetyl-2'-deoxy-5-fluorouridine], the ED50 is 15 mg/kg.

As to `O=c1[nH]c(=O)n([C@H]2C[C@H](OCc3ccccc3)[C@@H](CO)O2)cc1F` [drawing 480], the ED50 was 8 mg/kg.

The same data set, now with this note: Mus musculus, 240 h, Table 2, same manner as in (a): Sarcoma-180 s.c. in ICR mice, once a day for 7 consecutive days, read-out: ED50 (50% tumor inhibition dose, T/C is 0.5).
As to `CC(=O)OC[C@H]1O[C@@H](n2cc(F)c(=O)n(C(=O)c3cccc(C(=O)Oc4cc(OC(=O)c5ccccc5)c(Cl)cn4)c3)c2=O)C[C@@H]1OC(C)=O` [Example 197, 3-[3-(4-benzoyloxy-5-chloro-2-pyridyloxycarbonyl)benzoyl]-2'-deoxy-3',5'-di-O-acetyl-5-fluorouridine], the ED50 was determined as 7 mg/kg.

As to `CC(=O)Oc1cc(OC(=O)c2cccc(C(=O)n3c(=O)c(F)cn([C@@H]4O[C@H](C)[C@@H](OC(C)=O)[C@H]4OC(C)=O)c3=O)c2)c(Cl)cn1` [Example 201, 3-[3-(2-acetoxy-5-chloro-4-pyridyloxycarbonyl)benzoyl]-5'-deoxy-2',3'-di-O-acetyl-5-fluorouridine], the ED50 came out at 12 mg/kg.

Take `CC(=O)OC[C@H]1O[C@@H](n2cc(F)c(=O)n(C(=O)c3cccc(C(=O)Oc4cc(OC(=O)c5ccccc5)c(Cl)cn4)c3)c2=O)[C@H](OC(C)=O)[C@@H]1OC(C)=O` [Example 202, 3-[3-(4-benzoyloxy-5-chloro-2-pyridyloxycarbonyl)benzoyl]-5-fluoro-2',3',5'-tri-O-acetyluridine]: the ED50 is 22 mg/kg.

For the molecule `O=C(Oc1cc(OC(=O)c2ccccc2)c(Cl)cn1)c1cccc(C(=O)n2c(=O)c(F)cn([C@H]3C[C@H](OCc4ccccc4)[C@@H](COCc4ccccc4)O3)c2=O)c1` [Example 208, 3-[3-(4-benzoyloxy-5-chloro-2-pyridyloxycarbonyl)benzoyl]-2'-deoxy-3',5'-di-O-benzyl-5-fluorouridine], the ED50 amounted to 5 mg/kg.

On to `CCOCn1cc(F)c(=O)n(C(=O)c2cccc(C(=O)Oc3nc(OC(=O)c4ccccc4)ccc3C#N)c2)c1=O` [Example 227, 3-[3-(3-cyano-6-benzoyloxy-2-pyridyloxycarbonyl)benzoyl]-1-ethoxymethyl-5-fluorouracil], for which the ED50 was 5 mg/kg.

Test system in a further data set: not listed separately
The data set is described as follows: Acute toxicity, oral, 14 days observation, Litchfield-Wilcoxon method. Particulars: mouse, in vivo, 5-week-old ICR male mice. The procedure:
The compounds of the present invention prepared in Examples 2 and 54 were each orally administered to 5-week-old ICR male mice (8 mice in each group) to check the mice for the symptoms, change of weight and mortality by observing the mice for 14 consecutive days after the administration of the compounds. The LD50 value was determined from the mortality by the Litchfield-Wilcoxon method with the results shown below in Table 3.
For the molecule `O=c1[nH]c(=O)n([C@H]2C[C@H](OCc3ccccc3)[C@@H](CO)O2)cc1F` [Example 2, 3'-O-benzyl-2'-deoxy-5-fluorouridine], the LD50 at 336 h was over 1000 mg/kg.

In turn, `CC(=O)OC[C@H]1O[C@@H](n2cc(F)c(=O)[nH]c2=O)C[C@@H]1OCc1ccccc1` [Example 54, 3'-O-benzyl-5'-O-acetyl-2'-deoxy-5-fluorouridine] gave an LD50 at 336 h of over 1000 mg/kg.
